Assay results published in US20170196842A1, “METHODS OF TREATMENT USING A 1,2,4-OXADIAZOLE BENZOIC ACID” (PTC Therapeutics, Inc., priority 2014, published 2017).
Read-outs that look alike come from different tables or passages of the source.

Assay: Pharmacokinetics of Compound 1 delivered via solid chow (plasma, LC-MS/MS)
Format: in vivo, C57BL/6J mice
Conditions: for Tmax / Tmin / Cmin / AUC / Cmax: C57BL/6J mice; for AUC / Cmax: C57BL/6J, mouse, plasma, po; for AUC: read-out: AUC9-10
Protocol: The pharmacokinetics of Compound 1 at three doses (0.1%, 0.3% or 1% (w/w)) when delivered via solid chow was determined in satellite wild type C57BL/6J mice. The first day Compound 1 was provided was defined as Day 0. On Day 3 and on Day 13 blood was obtained from mice at specified time points and the plasma concentration of Compound 1 was measured using liquid chromatography-tandem mass spectrometry.
AUC9-10 refers to area under the curve plotting plasma concentration over time (9 am to 10 pm) (hr·μg/mL); Cmax refers to maximal plasma concentration (μg/mL); Cmin refers to minimal plasma concentration (μg/mL); Tmax refers to the time at which the maximal plasma concentration was measured; and Tmin refers to the time at which the minimal plasma concentration was measured.

[1] = 0.1% (w/w) in chow, Day 3, clock time
[2] = 0.1% (w/w) in chow, Day 13, clock time
[3] = 0.3% (w/w) in chow, Day 3, clock time
[4] = 0.3% (w/w) in chow, Day 13, clock time
[5] = 1.0% (w/w) in chow, Day 3, clock time
[6] = 1.0% (w/w) in chow, Day 13, clock time

Tmax [1]: 10 pm | Tmin [1]: 1 pm | Cmin (0.1% (w/w) in chow, Day 3, plasma): 0.76 µg/mL | Tmax [2]: 10 pm | Tmin [2]: 1 pm | Cmin (0.1% (w/w) in chow, Day 13, plasma): 1.0 µg/mL | Tmax [3]: 10 pm | Tmin [3]: 1 pm | Cmin (0.3% (w/w) in chow, Day 3, plasma): 3.7 µg/mL | Tmax [4]: 10 pm | Tmin [4]: 9 am | Cmin (0.3% (w/w) in chow, Day 13, plasma): 4.6 µg/mL | Tmax [5]: 4 pm | Tmin [5]: 1 pm | Cmin (1.0% (w/w) in chow, Day 3, plasma): 21 µg/mL | Tmax [6]: 4 pm | Tmin [6]: 9 am | Cmin (1.0% (w/w) in chow, Day 13, plasma): 19 µg/mL | AUC (0.1 % (w/w) in chow, 0.1% (w/w) in chow, Day 3, 9 am to 10 pm): 35000 ng·h/mL | Cmax (0.1 % (w/w) in chow, 0.1% (w/w) in chow, Day 3, plasma): 5200 ng/mL | AUC (0.1 % (w/w) in chow, 0.1% (w/w) in chow, Day 13, 9 am to 10 pm): 28000 ng·h/mL | Cmax (0.1 % (w/w) in chow, 0.1% (w/w) in chow, Day 13, plasma): 3600 ng/mL | AUC (0.3 % (w/w) in chow, 0.3% (w/w) in chow, Day 3, 9 am to 10 pm): 109000 ng·h/mL | Cmax (0.3 % (w/w) in chow, 0.3% (w/w) in chow, Day 3, plasma): 19000 ng/mL | AUC (0.3 % (w/w) in chow, 0.3% (w/w) in chow, Day 13, 9 am to 10 pm): 89000 ng·h/mL | Cmax (0.3 % (w/w) in chow, 0.3% (w/w) in chow, Day 13, plasma): 13000 ng/mL | AUC (1 % (w/w) in chow, 1.0% (w/w) in chow, Day 3, 9 am to 10 pm): 420000 ng·h/mL | Cmax (1 % (w/w) in chow, 1.0% (w/w) in chow, Day 3, plasma): 41000 ng/mL | AUC (1 % (w/w) in chow, 1.0% (w/w) in chow, Day 13, 9 am to 10 pm): 594000 ng·h/mL | Cmax (1 % (w/w) in chow, 1.0% (w/w) in chow, Day 13, plasma): 58000 ng/mL | Plasma concentrations (range over time points) (mice, 1.0% (w/w) in chow): 19 to 58 µg/mL
SMILES: O=C(O)c1cccc(-c2noc(-c3ccccc3F)n2)c1 [Compound 1, 3-[5-(2-fluoro-phenyl)-[1,2,4]oxadiazol-3-yl]-benzoic acid]
